Patent publication US9266904B2, “6-bridged heteroaryldihydropyrimidines for the treatment and prophylaxis of hepatitis B virus infection” (priority 2013, dated 2016)
Like-named read-outs stand apart in the source and are kept apart here.

How the values were obtained:
[1] = system: HBV replication in HepG2.2.15 cells; experiment: Anti-HBV activity in vitro in HepG2.2.15 cells (extracellular HBV DNA by qPCR); assay type: cell-based; details: Hepatitis B virus
Method in brief: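 Constitutively HBV-producing HepG2.2.15 cells were seeded overnight at 37 °C, then treated with half-log serial dilutions of compound (0.5% DMSO final) for five days. Supernatant HBV DNA was extracted and quantified by qPCR; EC50 is the concentration inhibiting HBV replication by 50%.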

[2] = Cytotoxicity (CCK-8 cell viability) and selectivity index; assay type: cell-based, human; details: human, HepDE19 cells; cytotoxicity, concentration resulting in death of 50% of host cells
Description: (§1) HepG2.2.15 and HepDE19 are stably-transfected cell lines containing the HBV genome. Both cell lines are derived from the hepatoblastoma cell line Hep G2 (American Type Culture Collection, ATCC® HB-8065™) by the published procedures described in references: M A Selles et al. Proc. Natl. Acad. Sci. USA 1987, 84, 1005-1009 and H Guo et al. Journal of Virology 2007, 81, 12472-12484, respectively. Both cell lines were maintained in Dulbecco's modified Eagle's medium (DMEM)-F12 medium supplemented with 10% fetal bovine serum, 100 U/mL penicillin, 100 μg/mL streptomycin, and 0.5 mg/mL of G418.
(§2) In a cell culture model, apparent antiviral activity of a compound can be the result of host cell death after exposure to the compound. To determine whether the anti-HBV effect of a test compound is due to cytotoxicity, HepDE19 cells were seeded into 96-well plates (5×10^3 cells per well) and treated with compounds as described above for EC50 determination. Five days after treatment, cell viability was measured by addition of 20 μL of CCK-8 reagent. Two hours after incubation at 37° C., the absorbance at wavelengths of 450 nm and 630 nm (OD450 and OD630) was recorded by a plate reader. The concentration results in the death of 50% of the host cells (CC50) of each compound was determined (See Table 5).

HepDE19 cells = experiment: as above; assay type: cell-based, human; details: CC50 value/EC50 value
Description: as §1, §2

[3] = Human microsomal clearance assay; assay type: in vitro ADME; details: human, 1 μM, pH 7.4
Method in brief: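 Liver microsomes (0.5 mg/mL protein) were incubated with 1 μM compound at 37 °C, pH 7.4 phosphate, with an NADPH-regenerating system. Samples at 0-30 min were quenched and measured by LC-MS/MS for parent loss. No-NADPH controls were included.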

[4] = HepG2.2.15, Anti-HBV activity in HepG2.2.15 cells, read-out: EC50

SMILES	EC50 [1, 4] [µM]	CC50 at 5 days [2] [µM]	Selectivity index (CC50/EC50) (HepDE19 cells)	CLh [3] [L/h/kg]	EC50 ([1]; HepG2.2.15) [µM]
COC(=O)C1=C(CN2C3COCC2CN(S(C)(=O)=O)C3)NC(c2nccs2)=N[C@H]1c1ccc(F)cc1Cl [Example 11, (R)-4-(2-Chloro-4-fluoro-phenyl)-6-(7-methanesulfonyl-3-oxa-7,9-diaza-bicyclo[3.3.1]non-9-ylmethyl)-2-thiazol-2-yl-1,4-dihydro-pyrimidine-5-carboxylic acid methyl ester]	0.0066	> 100	>15152	0.54	–
COC(=O)C1=C(CN2C3COCC2CN(C(=O)OC)C3)NC(c2nccs2)=N[C@H]1c1ccc(F)cc1Cl [Example 17, 9-[(R)-6-(2-Chloro-4-fluoro-phenyl)-5-methoxycarbonyl-2-thiazol-2-yl-3,6-dihydro-pyrimidin-4-ylmethyl]-3-oxa-7,9-diaza-bicyclo[3.3.1]nonane-7-carboxylic acid methyl ester]	0.004	50	11628	–	–
COC(=O)C1=C(CN2C3COCC2CN(S(N)(=O)=O)C3)NC(c2nccs2)=N[C@H]1c1ccc(F)cc1Cl [Example 19, (R)-4-(2-Chloro-4-fluoro-phenyl)-6-(7-sulfamoyl-3-oxa-7,9-diaza-bicyclo[3.3.1]non-9-ylmethyl)-2-thiazol-2-yl-1,4-dihydro-pyrimidine-5-carboxylic acid methyl ester]	0.004	58	16571	0.276	–
COC(=O)CC1CC2COCC(C1)N2CC1=C(C(=O)OC)[C@H](c2ccc(F)cc2Cl)N=C(c2nccs2)N1 (stereo partly drawn) [Example 25, (R)-4-(2-Chloro-4-fluoro-phenyl)-6-(7-methoxycarbonylmethyl-3-oxa-9-aza-bicyclo[3.3.1]non-9-ylmethyl)-2-thiazol-2-yl-1,4-dihydro-pyrimidine-5-carboxylic acid methyl ester]	0.0145	> 100	>6897	–	–
COC(=O)C1=C(CN2C3COCC2CC(NS(C)(=O)=O)C3)NC(c2nccs2)=N[C@H]1c1ccc(F)cc1Cl (stereo partly drawn) [Example 36, (R)-4-(2-Chloro-4-fluoro-phenyl)-6-(7-methanesulfonylamino-3-oxa-9-aza-bicyclo[3.3.1]non-9-ylmethyl)-2-thiazol-2-yl-1,4-dihydro-pyrimidine-5-carboxylic acid methyl ester]	0.003	38	11875	0.468	–
COC(=O)C1=C(CN2[C@@H]3COC[C@H]2CC2(C3)N=N2)NC(c2nccs2)=N[C@H]1c1ccc(F)cc1Cl [Example 43, (R)-6-(7-Diazirine-3-oxa-9-aza-bicyclo[3.3.1]non-9-ylmethyl)-4-(2-chloro-4-fluoro-phenyl)-2-thiazol-2-yl-1,4-dihydro-pyrimidine-5-carboxylic acid methyl ester]	0.003	43	14845	–	–
COC(=O)C1=C(CN2C3COCC2c2[nH]ncc23)NC(c2nccs2)=N[C@H]1c1ccc(F)cc1Cl (stereo partly drawn) [Example 45, (R)-4-(2-Chloro-4-fluoro-phenyl)-6-(9-oxa-3,4,11-triaza-tricyclo[5.3.1.0*2,6*]undeca-2(6),4-dien-11-ylmethyl)-2-thiazol-2-yl-1,4-dihydro-pyrimidine-5-carboxylic acid methyl ester]	0.0005	43	85280	–	–
CCOC(=O)C1=C(CN2[C@@H]3COC[C@H]2C[C@@H](NC(C)=O)C3)NC(c2nccs2)=N[C@H]1c1ccc(F)cc1Br [Example 70, Ethyl (4R)-6-[[(1S,5R)-7-endo-acetamido-3-oxa-9-azabicyclo[3.3.1]nonan-9-yl]methyl]-4-(2-bromo-4-fluoro-phenyl)-2-thiazol-2-yl-1,4-dihydropyrimidine-5-carboxylate]	0.0082	60	7268	–	–
CCOC(=O)C1=C(CN2[C@@H]3COC[C@H]2C[C@H](NC(C)=O)C3)NC(c2nccs2)=N[C@H]1c1ccc(F)cc1Br [Example 71, Ethyl (4R)-6-[[(1S,5R)-7-exo-acetamido-3-oxa-9-azabicyclo[3.3.1]nonan-9-yl]methyl]-4-(2-bromo-4-fluoro-phenyl)-2-thiazol-2-yl-1,4-dihydropyrimidine-5-carboxylate]	0.003	44	14690	–	–
COC(=O)C1=C(CN2C3COCC2c2conc2C3)NC(c2nccs2)=N[C@H]1c1ccc(F)cc1Cl (stereo partly drawn) [Example 104, (4R)-4-(2-Chloro-4-fluoro-phenyl)-6-(4,10-dioxa-5,12-diaza-tricyclo[6.3.1.0*2,6*]dodeca-2,5-dien-12-ylmethyl)-2-thiazol-2-yl-1,4-dihydro-pyrimidine-5-carboxylic acid methyl ester]	0.0048	44	9079	–	–
COC(=O)C1=C(CN2C3COCC2c2cnoc2C3)NC(c2nccs2)=N[C@H]1c1ccc(F)cc1Cl (stereo partly drawn) [Example 105, (4R)-4-(2-Chloro-4-fluoro-phenyl)-6-(5,10-dioxa-4,12-diaza-tricyclo[6.3.1.0*2,6*]dodeca-2(6),3-dien-12-ylmethyl)-2-thiazol-2-yl-1,4-dihydro-pyrimidine-5-carboxylic acid methyl ester]	0.0027	33	12041	–	–
COC(=O)C1=C(CN2C3COCC2C(F)(F)c2[nH]ncc23)NC(c2nccs2)=N[C@H]1c1ccc(F)cc1Cl (stereo partly drawn) [Example 107, (R)-4-(2-Chloro-4-fluoro-phenyl)-6-(7,7-difluoro-10-oxa-4,5,12-triaza-tricyclo[6.3.1.0*2,6*]dodeca-2(6),3-dien-12-ylmethyl)-2-thiazol-2-yl-1,4-dihydro-pyrimidine-5-arboxylic acid methyl ester]	0.0021	26	12495	–	–
COC(=O)C1=C(CN2C3COCC2C(F)(F)C3)NC(c2nccs2)=N[C@H]1c1ccc(F)cc1Cl (stereo partly drawn) [Example 108, Methyl (4R)-4-(2-chloro-4-fluorophenyl)-6-[(6,6-difluoro-3-oxa-8-azabicyclo[3.2.1]octan-8-yl)methyl]-2-(1,3-thiazol-2-yl)-1,4-dihydropyrimidine-5-carboxylate]	0.0074	74	9953	–	–
CCOC(=O)C(O)C1(O)CC2COCC(C1)N2CC1=C(C(=O)OC)[C@H](c2ccc(F)cc2Cl)N=C(c2nccs2)N1 (stereo partly drawn) [Example 137, Methyl (4R)-4-(2-chloro-4-fluoro-phenyl)-6-[[7-(2-ethoxy-1-hydroxy-2-oxo-ethyl)-7-hydroxy-3-oxa-9-azabicyclo[3.3.1]nonan-9-yl]methyl]-2-thiazol-2-yl-1,4-dihydropyrimidine-5-carboxylate]	0.0032	55	17031	–	–
CCOC(=O)CC1(NS(C)(=O)=O)CC2COCC(C1)N2CC1=C(C(=O)OC)[C@H](c2ccc(F)cc2Cl)N=C(c2nccs2)N1 (stereo partly drawn) [Example 146, Methyl (4R)-4-(2-chloro-4-fluoro-phenyl)-6-[[7-(2-ethoxy-2-oxo-ethyl)-7-(methanesulfonamido)-3-oxa-9-azabicyclo[3.3.1]nonan-9-yl]methyl]-2-thiazol-2-yl-1,4-dihydropyrimidine-5-carboxylate]	0.0005	> 100	>200000	–	–
CCOC(=O)CC1(NC(=O)C(F)(F)F)CC2COCC(C1)N2CC1=C(C(=O)OC)[C@H](c2ccc(F)cc2Cl)N=C(c2nccs2)N1 (stereo partly drawn) [Example 147, Methyl (4R)-4-(2-chloro-4-fluoro-phenyl)-6-[[7-(2-ethoxy-2-oxo-ethyl)-7-[(2,2,2-trifluoroacetyl)amino]-3-oxa-9-azabicyclo[3.3.1]nonan-9-yl]methyl]-2-thiazol-2-yl-1,4-dihydropyrimidine-5-carboxylate]	–	> 100	>111111	–	0.0009
COC(=O)C1=C(CN2C3CC(F)(F)C2C[C@H]3C(=O)O)NC(c2nccs2)=N[C@H]1c1ccc(F)cc1Cl (stereo partly drawn) [Example 152, (5R)-7-[[(4R)-4-(2-chloro-4-fluoro-phenyl)-5-methoxycarbonyl-2-thiazol-2-yl-1,4-dihydropyrimidin-6-yl]methyl]-2,2-difluoro-7-azabicyclo[2.2.1]heptane-5-carboxylic acid]	0.0177	> 100	>5650	–	–
